Laboratory results from patent US20120132797A1, “MEANS AND METHODS FOR DIAGNOSING THYROID DISORDERS” (BASF SE, priority 2009, published 2012).
“And” between values parts separate entries of the source, which are not always exact repeats. Equal entries are not always repeated.

Test system: Wistar (Crl:WI(Han)) rats
Assay: Mass spectrometry-based plasma metabolite profiling of rats treated with known inducers of thyroid function impairment
Format: in vivo, rat
Conditions: ratio of group medians vs controls
Excerpt: At the beginning of the study the animals were 10-11 weeks old. Each dose group in the studies consisted of five rats per sex, and was compared with controls (10 rats per sex). […] The dose levels were chosen to show the typical overt (high dose) and slight (low dose) toxicological symptoms of the substances as described in the literature or in BASF internal study reports.
Blood samples were withdrawn from the retro-orbital sinus in all rats under isoflurane anesthesia on study days 7, 14 and 28 after a fasting period of 16-20 hours.
For mass spectrometry-based metabolite profiling analysis, plasma samples were extracted by a proprietary method which delivers a polar and a non-polar fraction. For GC-MS analysis, the non-polar fraction was treated with methanol under acidic conditions to yield the fatty acid methyl esters. Both fractions were further derivatised with Omethyl-hydroxyamine hydrochloride and pyridine to convert oxo groups to Omethyloximes and subsequently with a silylating agent before analysis.
In LC-MS/MS analysis, both fractions were reconstituted in appropriate solvent mixtures. HPLC was performed by gradient elution on reversed phase separation columns. For mass spectrometric detection metanomics proprietary technology was applied, which allows target and high sensitivity MRM (Multiple Reaction Monitoring) profiling in parallel to a full screen analysis. […] Moreover, several hundred additional analytes giving a fingerprint of the sample were included in the methods.
Following comprehensive analytical validation steps, the data for each analyte were normalized against data from pool samples. These samples were run in parallel through the whole process to account for process variability.
The sex- and day-stratified heteroscedastic t-test (“Welch test”) was applied to compare treated groups with respective controls. p-Values and ratios of corresponding group medians were collected as metabolic profiles and fed into a database.

[1] = female rats, fh7 (study day 7), Table 1
[2] = female rats, fh7 (study day 7), Table 1, first listing
[3] = female rats, fh7 (study day 7), Table 1, second listing
[4] = female rats, fh14 (study day 14), Table 1
[5] = female rats, fh14 (study day 14), Table 1, first listing
[6] = female rats, fh14 (study day 14), Table 1, second listing
[7] = female rats, fh28 (study day 28), Table 1
[8] = female rats, fh28 (study day 28), Table 1, first listing
[9] = female rats, fh28 (study day 28), Table 1, second listing
[10] = male rats, mh7 (study day 7), Table 2
[11] = male rats, mh7 (study day 7), Table 2, first listing
[12] = male rats, mh7 (study day 7), Table 2, second listing
[13] = male rats, mh14 (study day 14), Table 2
[14] = male rats, mh14 (study day 14), Table 2, first listing
[15] = male rats, mh14 (study day 14), Table 2, second listing
[16] = male rats, mh28 (study day 28), Table 2
[17] = male rats, mh28 (study day 28), Table 2, first listing
[18] = male rats, mh28 (study day 28), Table 2, second listing

CCCc1cc(=O)[nH]c(=S)[nH]1 [6-Propyl-2-thiouracil]
5-O-Methylsphingosine [1]: 1.40
Asparagine [1]: 1.10
Behenic acid (C22:0) [1]: 1.27
Citrate [1]: 0.87
Docosahexaenoic acid (C22:cis[4,7,10,13,16]6) [1]: 1.25
Glycine [1]: 1.13
Ketoleucine [1]: 1.05
Lysophosphatidylcholine (C18:2) [1]: 1.07
Phosphatidylcholine (C16:1, C18:2) [1]: 1.49
Phosphatidylcholine (C18:2, C20:4) [1]: 1.20
Pyruvate [1]: 0.91
Tricosanoic acid (C23:0) [1]: 1.45
erythro-Sphingosine [1]: 1.46
threo-Sphingosine [1]: 1.24
Sphingomyelin (d18:1, C16:0) [2]: 1.01
Sphingomyelin (d18:1, C16:0) [3]: 1.26
5-O-Methylsphingosine [4]: 1.36
Asparagine [4]: 1.09
Behenic acid (C22:0) [4]: 1.14
Citrate [4]: 0.69
Docosahexaenoic acid (C22:cis[4,7,10,13,16]6) [4]: 1.14
Glycine [4]: 1.08
Ketoleucine [4]: 0.80
Lysophosphatidylcholine (C18:2) [4]: 1.31
Phosphatidylcholine (C16:1, C18:2) [4]: 1.37
Phosphatidylcholine (C18:2, C20:4) [4]: 1.17
Pyruvate [4]: 0.65
Tricosanoic acid (C23:0) [4]: 1.30
erythro-Sphingosine [4]: 1.28
threo-Sphingosine [4]: 1.29
Sphingomyelin (d18:1, C16:0) [5]: 1.46
Sphingomyelin (d18:1, C16:0) [6]: 1.33
5-O-Methylsphingosine [7]: 1.20
Asparagine [7]: 0.93
Behenic acid (C22:0) [7]: 1.23
Citrate [7]: 0.66
Docosahexaenoic acid (C22:cis[4,7,10,13,16]6) [7]: 0.84
Glycine [7]: 1.05
Ketoleucine [7]: 0.89
Lysophosphatidylcholine (C18:2) [7]: 1.26
Phosphatidylcholine (C16:1, C18:2) [7]: 1.09
Phosphatidylcholine (C18:2, C20:4) [7]: 1.17
Pyruvate [7]: 0.73
Tricosanoic acid (C23:0) [7]: 1.36
erythro-Sphingosine [7]: 1.24
threo-Sphingosine [7]: 1.34
Sphingomyelin (d18:1, C16:0) [8]: 1.62
Sphingomyelin (d18:1, C16:0) [9]: 1.29
3-O-Methylsphingosine [10]: 1.57
5-O-Methylsphingosine [10]: 1.50
14-Methyl-Pentadecanoic acid [10]: 0.98
17-Methyloctadecanoic acid [10]: 1.10
Arginine [10]: 1.09
Cholesterol [10]: 1.42
Citrate [10]: 0.90
Dihom-gamma-Linolenic acid (C20:cis[8,11,14]3) [10]: 1.02
Lignoceric acid (C24:0) [10]: 1.28
Phytosphingosine [10]: 1.11
Sphingomyelin (d18:1, C16:0) [10]: 1.35
Tricosanoic acid (C23:0) [10]: 1.28
alpha-Tocopherol [10]: 1.20
erythro-Sphingosine [10]: 1.46
threo-Sphingosine [10]: 1.33
Glutamate [11]: 0.78
Glutamate [12]: 1.03
3-O-Methylsphingosine [13]: 1.41
5-O-Methylsphingosine [13]: 1.38
14-Methyl-Pentadecanoic acid [13]: 0.86
17-Methyloctadecanoic acid [13]: 0.67
Arginine [13]: 1.10
Cholesterol [13]: 0.98
Citrate [13]: 0.73
Dihom-gamma-Linolenic acid (C20:cis[8,11,14]3) [13]: 1.33
Lignoceric acid (C24:0) [13]: 1.12
Phytosphingosine [13]: 1.07
Sphingomyelin (d18:1, C16:0) [13]: 1.35
Tricosanoic acid (C23:0) [13]: 1.10
alpha-Tocopherol [13]: 1.15
erythro-Sphingosine [13]: 1.30
threo-Sphingosine [13]: 1.23
Glutamate [14]: 0.78
Glutamate [15]: 0.70
3-O-Methylsphingosine [16]: 1.90
5-O-Methylsphingosine [16]: 1.82
14-Methyl-Pentadecanoic acid [16]: 0.64
17-Methyloctadecanoic acid [16]: 0.70
Arginine [16]: 1.35
Cholesterol [16]: 1.23
Citrate [16]: 0.64
Dihom-gamma-Linolenic acid (C20:cis[8,11,14]3) [16]: 1.50
Lignoceric acid (C24:0) [16]: 1.16
Phytosphingosine [16]: 1.20
Sphingomyelin (d18:1, C16:0) [16]: 1.71
Tricosanoic acid (C23:0) [16]: 1.55
alpha-Tocopherol [16]: 1.12
erythro-Sphingosine [16]: 1.47
threo-Sphingosine [16]: 1.52
Glutamate [17]: 0.65
Glutamate [18]: 0.49

S=C1NCCN1 [Ethylenethiourea]
5-O-Methylsphingosine [1]: 1.29 and 1.20
Asparagine [1]: 1.06 and 1.35
Behenic acid (C22:0) [1]: 1.48 and 1.27
Citrate [1]: 0.89 and 0.78
Docosahexaenoic acid (C22:cis[4,7,10,13,16]6) [1]: 1.12 and 1.29
Glycine [1]: 1.21 and 1.09
Ketoleucine [1]: 0.93 and 0.84
Lysophosphatidylcholine (C18:2) [1]: 1.08
Phosphatidylcholine (C16:1, C18:2) [1]: 1.43 and 1.26
Phosphatidylcholine (C18:2, C20:4) [1]: 1.09 and 1.02
Pyruvate [1]: 1.29 and 0.74
Tricosanoic acid (C23:0) [1]: 1.38 and 1.44
erythro-Sphingosine [1]: 1.46 and 1.39
threo-Sphingosine [1]: 1.35 and 1.58
Sphingomyelin (d18:1, C16:0) [2]: 1.71 and 1.62
Sphingomyelin (d18:1, C16:0) [3]: 1.29 and 1.46
5-O-Methylsphingosine [4]: 1.56 and 1.59
Asparagine [4]: 1.31 and 1.27
Behenic acid (C22:0) [4]: 1.29 and 1.69
Citrate [4]: 0.85 and 0.86
Docosahexaenoic acid (C22:cis[4,7,10,13,16]6) [4]: 1.45 and 1.24
Glycine [4]: 1.24 and 1.18
Ketoleucine [4]: 0.84 and 0.82
Lysophosphatidylcholine (C18:2) [4]: 1.19 and 1.17
Phosphatidylcholine (C16:1, C18:2) [4]: 1.43 and 1.54
Phosphatidylcholine (C18:2, C20:4) [4]: 1.15 and 1.09
Pyruvate [4]: 0.79 and 1.14
Tricosanoic acid (C23:0) [4]: 1.52 and 1.30
erythro-Sphingosine [4]: 1.71 and 1.98
threo-Sphingosine [4]: 1.47 and 1.61
Sphingomyelin (d18:1, C16:0) [5]: 1.43 and 1.55
Sphingomyelin (d18:1, C16:0) [6]: 1.06 and 1.34
5-O-Methylsphingosine [7]: 1.63 and 1.59
Asparagine [7]: 1.26 and 0.84
Behenic acid (C22:0) [7]: 1.69 and 1.27
Citrate [7]: 0.70 and 0.91
Docosahexaenoic acid (C22:cis[4,7,10,13,16]6) [7]: 1.22 and 1.11
Glycine [7]: 1.32 and 1.01
Ketoleucine [7]: 0.88 and 0.74
Lysophosphatidylcholine (C18:2) [7]: 1.10 and 1.23
Phosphatidylcholine (C16:1, C18:2) [7]: 1.41 and 1.30
Phosphatidylcholine (C18:2, C20:4) [7]: 1.06 and 1.04
Pyruvate [7]: 0.69 and 1.04
Tricosanoic acid (C23:0) [7]: 1.42 and 1.05
erythro-Sphingosine [7]: 1.51 and 1.35
threo-Sphingosine [7]: 1.51 and 1.26
Sphingomyelin (d18:1, C16:0) [8]: 1.70 and 1.38
Sphingomyelin (d18:1, C16:0) [9]: 1.16 and 1.07
3-O-Methylsphingosine [10]: 2.26
5-O-Methylsphingosine [10]: 2.36
14-Methyl-Pentadecanoic acid [10]: 0.98
17-Methyloctadecanoic acid [10]: 0.97
Arginine [10]: 1.24
Cholesterol [10]: 1.74
Citrate [10]: 0.86
Dihom-gamma-Linolenic acid (C20:cis[8,11,14]3) [10]: 2.34
Lignoceric acid (C24:0) [10]: 1.94
Phytosphingosine [10]: 1.53
Sphingomyelin (d18:1, C16:0) [10]: 1.65
Tricosanoic acid (C23:0) [10]: 1.67
alpha-Tocopherol [10]: 2.58
erythro-Sphingosine [10]: 2.06
threo-Sphingosine [10]: 2.05
Glutamate [11]: 1.07
Glutamate [12]: 1.15
3-O-Methylsphingosine [13]: 2.34
5-O-Methylsphingosine [13]: 2.37
14-Methyl-Pentadecanoic acid [13]: 0.96
17-Methyloctadecanoic acid [13]: 0.83
Arginine [13]: 1.30
Cholesterol [13]: 2.25
Citrate [13]: 0.81
Dihom-gamma-Linolenic acid (C20:cis[8,11,14]3) [13]: 1.84
Lignoceric acid (C24:0) [13]: 1.66
Phytosphingosine [13]: 1.67
Sphingomyelin (d18:1, C16:0) [13]: 1.69
Tricosanoic acid (C23:0) [13]: 2.01
alpha-Tocopherol [13]: 2.99
erythro-Sphingosine [13]: 2.06
threo-Sphingosine [13]: 2.03
Glutamate [14]: 0.73
Glutamate [15]: 0.82
3-O-Methylsphingosine [16]: 2.91
5-O-Methylsphingosine [16]: 2.78
14-Methyl-Pentadecanoic acid [16]: 0.77
17-Methyloctadecanoic acid [16]: 0.89
Arginine [16]: 1.20
Cholesterol [16]: 1.98
Citrate [16]: 0.64
Dihom-gamma-Linolenic acid (C20:cis[8,11,14]3) [16]: 2.68
Lignoceric acid (C24:0) [16]: 2.07
Phytosphingosine [16]: 2.17
Sphingomyelin (d18:1, C16:0) [16]: 1.79
Tricosanoic acid (C23:0) [16]: 2.39
alpha-Tocopherol [16]: 3.13
erythro-Sphingosine [16]: 2.29
threo-Sphingosine [16]: 2.05
Glutamate [17]: 0.70
Glutamate [18]: 0.77
